This note sets out measurements from patent publication US20140328795A1, “VIRUCIDAL SMALL MOLECULE AND USES THEREOF” (The Texas A&M University System, priority 2012, published 2014).

In one series the test system is Sindbis virus (SINV). Type of series: cell-based.
In series [1] the test system is HCVcc. Also on record: species or system HCV.
The test system of another series is DC-associated HIV-1. In kind it is cell-based. As to conditions: 10 μM PD added to DC 2 h after virus, pseudotyped NL4.3ΔEnv-eGFP/gp160 Env virus, Jurkat T cells, 3 days.
The subject of series [2] is HCVcc. In kind it is cell-based, HCV.
The next series concerns Dengue virus (DenV). In words: Dengue virus plaque assay on Vero cells. In kind it is cell-based, Serotype 2 New Guinea C strain Dengue virus. Conditions: 300 μM PD.
Series [3] relates to HIV-1 (X4 NL4.3) particles. As to conditions: 10 μM PD, 30 min, 37° C.; 20-70% sucrose gradient.
The subject of another series is VSV-Gpp. In kind it is physicochemical. Conditions: pH 7.
Series [4] relates to HCVcc. Type of series: cell-based, HCV. The source holds these as a separate data set.
In series [5] the test system is commensal Lactobacillus species. As to the kind of experiment: Lactobacillus toxicity testing, all strains together. Type of series: cell-based. The method, then: (§1) Reference strains of L. crispatus and L. jensenii were obtained from the ATCC (Manassas, Va.) and cultured on Columbia blood agar plates at 35° C. in air enriched with 6% CO2. Bacterial suspensions were prepared in saline or ACES buffer to a density of 2 McFarland units (˜2×10^8 bacteria/mL), and exposed to PD (300 μM) or DMSO (10%) for 30 minutes at 37° C. After incubation, the cells were serially diluted in ACES buffer, pH 7.0 (Sigma-Aldrich, St. Louis, Mo.) and plated on blood agar plates to quantify colony forming unit per mL (CFU/mL)
(§2) Different bacterial strains were incubated with 300 μM PD or solvent DMSO-containing control media at 37° C. for 30 min and plated on blood agar plates to estimate their corresponding colony forming units per ml (CFU/ml). Less than 1 log difference between control and test CFU is considered non-toxic17.

The test system of a further series is HSV-1 virions. Conditions: 0.2 μM PD, 30 min, 37° C.; 20-70% sucrose gradient. The method, then: FIGS. 16A-16B depict effectiveness of PD against HSV. PD blocks HSV infection. Vero cells were seeded in a 24-well plate and infected with HSV-1 (Syn 17) or HSV-2 (333) (FIG. 16A). PD (200 nM) or control DMSO (0.01%) was added immediately to the target cells after viral inoculation. Two days later, the cells were harvested, stained with antibody against HSV glycoprotein gD and analyzed by flow cytometry. Error bars represent standard deviation of triplicate samples. Results are representative of two independent experiments. PD Destabilizes HSV particles (FIG. 16B). […] The amount of HSV glycoprotein gpB in each fraction was analyzed by ELISA. The sucrose gradient density of each fraction was determined by measuring the refractive index. […]
HSV was concentrated by loading 30 mL HSV-1-infected Vero cell supernatant on a 20% sucrose cushion and centrifuged in a SW28 rotor at 20,000 rpm for 1 h at 4° C. […] After ultracentrifugation at 30,000 rpm for 24 h in a SW-41 T rotor at 4° C., fractions of 1 mL were collected and analyzed for HSV gpB content by enzyme-linked immunosorbent assay (ELISA) using homemade rabbit polyclonal antibody. The density of each fraction from the sucrose gradient was determined by measuring the refractive index.
Applicants also investigated whether PD can disrupt the structure of HSV virions. […] Each gradient fraction was analyzed for HSV glycoprotein gpB by ELISA. […]

A further series relates to SIV. As to the kind of experiment: SIV infectivity assay in TZM-bl cells (β-galactosidase). As to conditions: Simian immunodeficiency virus; for IC90: IC90 per footnote, read-out: IC50 (the source's name). Type of series: cell-based.
The next series concerns Lactobacillus jensenii. In words: Lactobacillus toxicity testing (CFU). Type of series: cell-based. As to conditions: 37° C. The method, then: as §1, §2
In another series the test system is Lactobacillus crispatus. As to the kind of experiment: Lactobacillus toxicity testing (CFU). In kind it is cell-based. Conditions: 37° C. The method, then: as §1, §2
[6] abbreviates: SIVsyk1.2, PD in DMEM with 10% fetal bovine serum.

“Also recorded” adds a separate entry of the source. Where two headings read alike, the source gives them in different places.

For `N=C1Sc2ccccc2C2=NCCCN12` [PD, PD 404,182], in the series on Sindbis virus (SINV), the “effect on infectivity of SINV” value is listed as “no significant inhibitory effect”. Further, the HCVcc virion lysis entry with HCVcc [1] is recorded as “Little to no virion lysis”. For the same compound, the “DC to T cell transmission of HIV-1” value in the series with DC-associated HIV-1 is recorded as “prevents subsequent T cell infection with the pseudotyped virus”. The “attachment of PD-treated HCVcc to cells” value in the series on HCVcc [2] is given as “binds to cells comparably to control DMSO-treated virus; also recorded: slight decrease in attachment”. In addition, in the series on Dengue virus (DenV), the “effect on infectivity of DenV” value is “no significant inhibitory effect”. Also, in series [3], the “sedimentation of HIV-1 capsid and RT in sucrose gradient” value was “viral capsid and RT relocate to the top of the gradient”. The long-term stability entry in the series on VSV-Gpp is “not stable”. Moreover, the “inhibition of virus infectivity” value in the series with HCVcc [4] is above 10 fold. The “effect on Lactobacillus strains” value in series [5] (300 μM PD, 37° C., 30 min) was “no adverse effect”. Also, in series [5] (vaginal commensal bacteria Lactobacilli), the CC50 was above 300 µM. Besides, in the series with HSV-1 virions, the “sedimentation of HSV gpB in sucrose gradient” value is “all gpB distributed to the top of the gradient”. Further, the IC90 came to 6.2 µM with SIV (SIVmoc251 32H, PD in DMEM with 10% fetal bovine serum) and 5.4 µM with SIV (setting [6]). Further, it took 1.8 µM to reach half-maximal inhibition in the series with SIV (setting [6]) (IC50). In addition, the “CFU of Lactobacillus treated with 300 μM PD” value in the series on Lactobacillus jensenii (Lactobacillus jensenii ATCC 25258, 30 min) was 7,533,333 CFU/ml; with Lactobacillus jensenii (Lactobacillus jensenii LBP 28Ab, 30 min), 10,033,333 CFU/ml; in the series with Lactobacillus crispatus (Lactobacillus crispatus ATCC 33197, 30 min) it was 7,260,000 CFU/ml. The “Log(Control)-Log(PD)” value in the series on Lactobacillus jensenii (Lactobacillus jensenii LBP 28Ab, 300 μM PD, 30 min) was −0.021; with Lactobacillus crispatus (Lactobacillus crispatus ATCC 33197, 300 μM PD, 30 min), −0.019.
